Measurements: patent US8642808B2, “Bis-aryl sulfonamides” (ChemoCentryx, Inc., priority 2002, dated 2014)

Experiments:
CCR9 = molecular target: T1, CCR9 (Homo sapiens, UniProt P51686); assay: chemotaxis (conventional migration) assay and/or calcium mobilization (calcium flux) assay, TECK-stimulated MOLT-4 cells; type: cell-based; settings: TECK-induced migration and/or calcium signal, read-out: activity (IC50) in either or both of the chemotaxis assay and calcium mobilization assays
T1 construct: CCR9-expressing cells (such as a T cell line MOLT-4 cells); host or cells: MOLT-4
T1 sequence (P51686 1-369): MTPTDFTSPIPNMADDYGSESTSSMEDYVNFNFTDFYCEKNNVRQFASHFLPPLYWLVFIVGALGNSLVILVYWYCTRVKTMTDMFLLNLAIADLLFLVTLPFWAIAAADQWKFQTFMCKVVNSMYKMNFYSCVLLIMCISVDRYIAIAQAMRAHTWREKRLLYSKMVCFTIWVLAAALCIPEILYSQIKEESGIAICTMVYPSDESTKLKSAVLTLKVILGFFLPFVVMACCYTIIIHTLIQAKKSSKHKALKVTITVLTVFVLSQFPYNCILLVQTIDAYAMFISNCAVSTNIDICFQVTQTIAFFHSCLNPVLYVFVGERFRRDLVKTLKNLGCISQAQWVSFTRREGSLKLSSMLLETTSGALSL
Protocol: MOLT-4 cells were obtained from the American Type Culture Collection (Manassas, Va.) and cultured in RPMI tissue culture medium supplemented with 10% fetal calf serum (FCS) in a humidified 5% CO2 incubator at 37° C. Recombinant human chemokine protein TECK was obtained from R&D Systems (Minneapolis, Minn.). ChemoTX® chemotaxis microchambers were purchased from Neuro Probe (Gaithersburg, Md.). CyQUANT® cell proliferation kits were purchased from Molecular Probes (Eugene, Oreg.). Calcium indicator dye Fluo-4 AM was purchased from Molecular Devices (Mountain View, Calif.).
Conventional migration assay was used to determine the efficacy of potential receptor antagonists in blocking migration mediated through CCR9. This assay was routinely performed using the ChemoTX® microchamber system with a 5-μm pore-sized polycarbonate membrane. To begin such an assay, MOLT-4 cells were harvested by centrifugation of cell suspension at 1000 PRM on a GS-6R Beckman centrifuge. The cell pellet was resuspended in chemotaxis buffer (HBSS with 0.1% BSA) at 5×10^6 cells/mL. Test compounds at desired concentrations were prepared from 10 mM stock solutions by serial dilutions in chemotaxis buffer. An equal volume of cells and compounds were mixed and incubated at room temperature for 15 minutes. Afterwards, 20 μL of the mixture was transferred onto the porous membrane of a migration microchamber, with 29 μL of 50 nM chemokine TECK protein placed at the lower chamber. Following a 150-minute incubation at 37° C., during which cells migrated against the chemokine gradient, the assay was terminated by removing the cell drops from atop the filter. To quantify cells migrated across the membrane, 5 μL of 7X CyQUANT® solution was added to each well in the lower chamber, and the fluorescence signal measured on a Spectrafluor Plus fluorescence plate reader (TECAN, Durham, N.C.). The degree of inhibition was determined by comparing migration signals between compound-treated and untreated cells. IC50 calculation was further performed by non-linear squares regression analysis using Graphpad Prism (Graphpad Software, San Diego, Calif.).
Calcium flux assay measures an increase in intracellular calcium following ligand-induced receptor activation. In the screen of CCR9 antagonists, it was used as a secondary assay carried out on a FLIPR® machine (Molecular Devices, Mountain View, Calif.). To begin an assay, MOLT-4 cells were harvested by centrifugation of cell suspension, and resuspended to 1.5×10^6 cells/mL in HBSS (with 1% fetal calf serum). Cells were then labeled with a calcium indicator dye Fluo-4 AM for 45 minutes at 37° C. with gentle shaking. Following incubation, cells were pelletted, washed once with HBSS and resuspended in the same buffer at a density of 1.6×10^6 cells/mL. One hundred microliters of labeled cells were mixed with […] of test compound at the appropriate concentrations on an assay plate. Chemokine protein TECK was added at a final concentration of 25 nM to activate the receptor. The degree of inhibition was determined by comparing calcium signals between compound-treated and untreated cells. IC50 calculations were further performed by non-linear squares regression analysis using Graphpad Prism (Graphpad Software, San Diego, Calif.).
In the table below, structures and activity are provided for representative compounds described herein. Activity is provided as follows for either or both of the chemotaxis assay and/or calcium mobilization assays, described above: + 1000 nM<IC50<10000 nM; ++, 100 nM<IC50<1000 nM; and +++, IC50<100 nM.

MDR1α-knockout mice = assay: in vivo efficacy study in MDR1α-knockout mice (spontaneous colitis, delay of disease onset); settings: female MDR1α-knockout mice, 50 mg/kg twice a day intraperitoneal
Source text: The MDR1α-knockout mice, which lack the P-glycoprotein gene, spontaneously develop colitis under specific pathogen-free condition. The pathology in these animals has been characterized as Th1-type T cell-mediated inflammation similar to ulcerative colitis in humans. Disease normally begins to develop at around 8-10 weeks after birth. But the ages at which disease emerges and the ultimate penetrance level often vary considerably among different animal facilities.
In a study using the MDR1α-knockout mice, the known compound shown below was tested for its ability to delay disease onset during a short treatment regimen.
This compound is structurally similar to the claimed modulators (I) of the present invention. Female mice (n=15) were dosed with 50 mg/kg twice a day by intraperitonial injection, starting at age 13 weeks for 14 consecutive days. The study was terminated when the mice reached age 17 weeks at which point the disease penetrance level measured by diarrhea incidence reached 55%. […] This protection extended one to two weeks after treatment stopped (FIG. 1).

SMILES | IC50 (CCR9) [nM] | further results
CC(C)(C)c1ccc(S(=O)(=O)Nc2ccc(Cl)cc2C(=O)c2ccccc2)cc1 | < 100 | –
CC(C)(C)c1ccc(S(=O)(=O)Nc2ccc(Cl)cc2C(=O)c2ccc(F)cc2)cc1 | 100 to 1000 | –
O=C(c1ccccc1)c1cc(Cl)ccc1NS(=O)(=O)c1cccc(F)c1 | 100 to 1000 | –
CCc1ccc(S(=O)(=O)Nc2ccc(Br)cc2C(=O)c2ccccc2)cc1 | < 100 | –
O=C(c1ccccc1)c1cc(Cl)ccc1NS(=O)(=O)c1ccc(Br)cc1 | 100 to 1000 | –
COc1ccc(-c2ccc(S(=O)(=O)Nc3ccc(Cl)cc3C(=O)c3ccccc3)cc2)cc1 | 1000 to 10000 | –
O=C(c1ccccc1)c1cc(Cl)ccc1NS(=O)(=O)c1ccc(-c2cccs2)cc1 | 100 to 1000 | –
COC(=O)CCc1ccc(S(=O)(=O)Nc2ccc(Cl)cc2C(=O)c2ccccc2)cc1 | < 100 | –
COc1ccc(S(=O)(=O)Nc2ccc(OC)cc2C(=O)c2ccccc2)cc1 | 1000 to 10000 | –
O=C(c1ccccc1)c1cc(Br)ccc1NS(=O)(=O)c1ccc(-c2cocn2)cc1 | < 100 | –
O=C(c1ccccc1)c1cc(Cl)ccc1NS(=O)(=O)c1ccc(C#Cc2ccccc2)cc1 | 100 to 1000 | –
CC(=O)c1ccc(S(=O)(=O)Nc2ccc(Cl)cc2C(=O)c2ccccc2)cc1 | < 100 | –
O=C(c1ccccc1)c1cc(Cl)ccc1NS(=O)(=O)c1ccc(-n2cccn2)cc1 | 100 to 1000 | –
O=C(c1ccccc1)c1cc(Cl)ccc1NS(=O)(=O)c1ccc(OC(F)(F)F)cc1 | < 100 | –
COc1ccc(S(=O)(=O)Nc2cc(Br)ccc2C(=O)c2ccccc2)cc1 | 100 to 1000 | –
CCCCc1ccc(S(=O)(=O)Nc2ccc(Cl)cc2C(=O)c2ccccc2)cc1 | 100 to 1000 | –
O=C(c1ccccc1)c1cc(Cl)ccc1NS(=O)(=O)c1ccc(F)cc1 | 100 to 1000 | –
CC(C)Oc1ccc(S(=O)(=O)Nc2ccc(Cl)cc2C(=O)c2ccccc2)cc1 | < 100 | –
COc1ccc(S(=O)(=O)Nc2ccc(Cl)cc2C(=O)c2ccccc2F)cc1 | 1000 to 10000 | –
CCC(C)(C)c1ccc(S(=O)(=O)Nc2ccc(Cl)cc2C(=O)c2ccccc2)cc1 | < 100 | –
C=Cc1ccc(S(=O)(=O)Nc2ccc(Cl)cc2C(=O)c2ccccc2)cc1 | < 100 | –
O=C(c1ccccc1)c1cc(Cl)ccc1NS(=O)(=O)c1ccc(C(F)(F)F)cc1 | < 100 | –
COc1ccc(S(=O)(=O)Nc2ccc(Cl)cc2C(=O)c2ccccc2)cc1 [drawing 93] | < 100 | –
CCc1ccc(S(=O)(=O)Nc2ccc(Cl)cc2C(=O)c2ccccc2)cc1 | < 100 | –

SMILES | IC50 (CCR9) [nM] | further results
CC(=O)c1ccc(S(=O)(=O)Nc2ccc(Br)cc2C(=O)c2ccccc2)cc1 | < 100 | –
N#Cc1ccc(S(=O)(=O)Nc2ccc(Cl)cc2C(=O)c2ccccc2)cc1 | 100 to 1000 | –
O=C(c1ccccc1)c1cc(Cl)ccc1NS(=O)(=O)c1ccc(I)cc1 | < 100 | –
O=C(c1ccccc1)c1cc(Cl)ccc1NS(=O)(=O)c1ccc2c(c1)CCO2 | 100 to 1000 | –
CC(=O)Nc1ccc(S(=O)(=O)Nc2ccc(Cl)cc2C(=O)c2ccccc2)cc1Cl | 100 to 1000 | –
CC(=O)Nc1ccc(S(=O)(=O)Nc2ccc(Cl)cc2C(=O)c2ccccc2)cc1 | 100 to 1000 | –
O=C(c1ccccc1)c1cc(Cl)ccc1NS(=O)(=O)c1ccc(Nc2cccnc2)cc1 | 100 to 1000 | –
O=C(c1ccccc1)c1cc(Cl)ccc1NS(=O)(=O)c1cccc(C(F)(F)F)c1 | 1000 to 10000 | –
O=C(c1ccccc1)c1cc(Cl)ccc1NS(=O)(=O)c1ccc(-c2cnco2)cc1 | < 100 | –
CC(C)c1ccc(S(=O)(=O)Nc2ccc(Cl)cc2C(=O)c2ccccc2)cc1 | 100 to 1000 | –
COc1ccc(S(=O)(=O)Nc2ccc(Br)cc2C(=O)c2ccccc2)cc1 | < 100 | –
CS(=O)(=O)c1ccc(S(=O)(=O)Nc2ccc(Cl)cc2C(=O)c2ccccc2)cc1 | < 100 | –
CC(C)(C)c1ccc(S(=O)(=O)Nc2cc(Cl)ccc2C(=O)c2ccccc2)cc1 | < 100 | –
O=C(c1ccccc1)c1cc(Cl)ccc1NS(=O)(=O)c1ccc(Cl)c(Cl)c1 | 1000 to 10000 | –
CC(C)(C)c1ccc(S(=O)(=O)Nc2ccc(Br)cc2C(=O)c2ccccc2)cc1 | < 100 | –
COc1cccc(S(=O)(=O)Nc2ccc(Cl)cc2C(=O)c2ccccc2)c1 | 1000 to 10000 | –
CCCCOc1ccc(S(=O)(=O)Nc2ccc(Cl)cc2C(=O)c2ccccc2)cc1 | 1000 to 10000 | –
COc1ccc(S(=O)(=O)Nc2ccc(Cl)cc2C(=O)c2ccccc2)cc1 [drawing 79] | – | duration of protection after treatment stopped (MDR1α-knockout mice; 14 consecutive days): one to two; tolerability (MDR1α-knockout mice; 14 consecutive days from age 13 weeks): well tolerated; onset of IBD symptoms (diarrhea incidence) (MDR1α-knockout mice; 14 consecutive days from age 13 weeks, compared with vehicle): significant delay in the onset of IBD symptoms
N#Cc1cccc(S(=O)(=O)Nc2ccc(Cl)cc2C(=O)c2ccccc2)c1 | 100 to 1000 | –
O=C(c1ccccc1)c1cc(Cl)ccc1NS(=O)(=O)c1ccc(Cl)cc1Cl | 1000 to 10000 | –
O=C(c1ccccc1)c1cc(Cl)ccc1NS(=O)(=O)c1ccccc1F | 1000 to 10000 | –
COc1ccc(OC)c(S(=O)(=O)Nc2ccc(Cl)cc2C(=O)c2ccccc2)c1 | 1000 to 10000 | –
COc1ccc(S(=O)(=O)Nc2ccc(F)cc2C(=O)c2ccccc2)cc1 | < 100 | –
